Data: patent publication US20130266590A1, “DIMERIC IAP INHIBITORS” (NOVARTIS AG, priority 2010, published 2013)
Where a name gives a salt, the structure may show the parent alone. Read-outs that look alike come from different tables or passages of the source.

Tests used:
Panc3.27 tumor cells = assay: Cellular assay: Panc3.27 tumor cell proliferation (Cell Titer Glo); assay type: cell-based; conditions: Panc3.27 cells, 4000 cells per well, 72 hour growth, CTG readout, percent control growth; read-out: PANC proliferation IC50
Protocol: (§1) The compounds described herein above were profiled using a cellular assay (using Panc3.27 tumor cells) and a binding assay to determine the competition between the compounds of the present invention and smac7mer peptide for XIAP-BIR3 and cIAP1-BIR3 binding groove occupancy.
Cellular Assay—Treatment of Panc3.27 Tumor Cells with Dimeric IAP Antagonists
On day one adherent Panc3.27 cells are plated into two 96-well, clear, flat bottom plates. All wells in row A contain 90 uL of media. All wells in rows B-G contain a total volume of 90 uL per well and 4000 cells per well for Panc3.27 cell lines. Plates are then incubated overnight for 18 hours at 37° C., 5% CO2.
On day two cells are treated with the compounds of formula M-L-M′. Treatments are done in triplicate. The compounds are first serially diluted in DMSO and then added to media giving a final concentration of 0.2% DMSO when added to cells. Cells are treated with 10 uL of serially diluted compounds of formula M-L-M′ at a final concentration of 1000 nM, 200 nM, 40 nM, 8 nM, 1.6 nM, 0.32 nM, 0.06 nM, 0.013 nM, 0.0026 nM, and one untreated well. Plate two is used as a time zero plate.
To measure cell viability 50 uL of Cell Titer Glo (CTG) solution is added to row A, media only and B, cells and media. CTG is purchased from Promega Corporation catalog number G7573. The solution is prepared according to manufacturer's instructions. CTG measures the amount of ATP released from viable cells that is proportional to the number of cells in each well. After incubating for ten minutes with CTG plates are measured on a luminescent reader at 700 nm wavelength. Read time is approximately one second per well for a 96-well plate.
On day five 50 uL of CTG is added to plate one, rows A-G, incubated for 10 minutes at room temperature and read on a luminescent reader. Raw data is adjusted to account for the time zero plate as well as background noise. Triplicate values are averaged and percent control growth is calculated. Percent control growth is calculated using the following logical test: If well read data point (a) is greater than time zero data point (t=0), then 100*[(a)−(t=0)]/[(72 hour total growth)−(t=0)], OR 100*[(a)−(t=0)]/[(t=0)]. Data is represented by line graph with the concentration of compound on the x axis and percent control growth on the y axis.

XIAP-BIR3 = XIAP-BIR3 (Homo sapiens, UniProt P98170); assay: Biacore SPR solution competition binding assay vs smac7mer peptide, XIAP-BIR3; conditions: SPR competition with captured smac7mer peptide; 100 nM XIAP-BIR3; 25° C.; read-out: XIAP-BIR3 Binding Biacore (Competitive) EC50
Source text: as §1
(§2) The present method includes utility of a Surface plasmon resonance (SPR)-based biosensor (Biacore™, GE Healthcare, Uppsala, Sweden) to examine competition between the compounds of the present invention and smac7mer peptide for XIAP-BIR3 and cIAP1-BIR3 binding groove occupancy.
(§3) Biacore™ utilizes the phenomenon of surface plasmon resonance (SPR) to detect and measure binding interactions. In a typical Biacore experiment, one of the interacting molecules is immobilized on a flexible dextran matrix while the interacting partner is flowed over the derivatized surface. A binding interaction results in an increase in mass on the sensor surface and a corresponding direct change in the refractive index of the medium in the vicinity of the sensor surface. Changes in refractive index or signal are recorded in resonance units (R.U.) Signal changes due to association and dissociation of complexes are monitored in a non-invasive manner, continuously and in real-time, the results of which are reported in the form of a sensorgram.
(§4) Biacore™ T100 (GE Healthcare, Uppsala, Sweden) was used to conduct all experiments reported herein. Sensor surface preparation and interaction analyses were performed at 25° C. Buffer and Biacore reagents were purchased from GE Healthcare. Running buffer containing 10 mM Hepes, pH7.4, 150 mM sodium chloride, 1.25 mM Dithiothreitol, 2% Dimethyl sulfoxide and 0.05% polysorbate 20 was utilized throughout all experiments.
(§5) Biotinylated smac7mer peptide was diluted to 10 nM in running buffer and captured onto a sensor surface pre-derivatized with streptavidin (sensor chip SA) towards peptide surface densities in the range 40-100 R.U. Peptide captured surfaces were blocked with 500 μM PEO2-Biotin (Thermo Scientific).
(§6) Interaction analyses were performed by first equilibrating each compound within a six point seven fold compound dilution series in the range 1 μM to 0.06 nM with either 100 nM XIAP-BIR3 or 6 nM cIAP1-BIR3 for at least one hour during instrument start-up procedures. Protein compound mixtures were then injected over reference and smac7mer peptide surfaces in series for 60 seconds at a flow-rate of 60 μL/min. Surface regeneration was performed at the end of each analysis cycle by a 30 second injection of 10 mM Glycine, pH 2.5, 1M Sodium Chloride, 0.05% polysorbate 20. Additionally, control compound samples and control XIAP-BIR3 or cIAP1-BIR3 samples were prepared and run at regular intervals to monitor surface and assay performance.
(§7) Data analyses were carried out using Biacore™ T100 evaluation software v2.0 to validate assay quality. Binding level report points were plotted versus logarithmic compound concentration values and analyzed in Graphpad prism 5 via non-linear regression using a one-site competition model. EC50 values were generated and used as a measure of inhibitor potency.

cIAP1-BIR3 = cIAP1-BIR3 (Homo sapiens, UniProt Q13490); assay: Biacore SPR solution competition binding assay vs smac7mer peptide, cIAP1-BIR3; conditions: 6 nM cIAP1-BIR3, read-out: CIAP-BIR3 Binding Biacore (Competitive) EC50
Source text: as §1, §2, §3, §4, §5, §6, §7

[1] = SPR competition with captured smac7mer peptide, 25° C.

Chain of cIAP1-BIR3 (Q13490 253-363 limits assumed): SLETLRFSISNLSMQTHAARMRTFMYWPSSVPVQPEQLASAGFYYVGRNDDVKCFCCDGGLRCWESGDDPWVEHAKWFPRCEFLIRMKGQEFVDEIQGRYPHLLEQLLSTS
Chain of XIAP-BIR3 (P98170 241-356 limits assumed): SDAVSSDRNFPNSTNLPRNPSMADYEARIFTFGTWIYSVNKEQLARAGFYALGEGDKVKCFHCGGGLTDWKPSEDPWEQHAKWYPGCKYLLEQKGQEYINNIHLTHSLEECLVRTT

SMILES	IC50 (Panc3.27 tumor cells)	EC50 (XIAP-BIR3)	EC50 (cIAP1-BIR3; [1])	EC50 (cIAP1-BIR3; Tested as the citrate salt (footnote 1), SPR competition with smac7mer peptide)
CN[C@@H](C)C(=O)N[C@H](C(=O)N1CCC[C@H]1c1cncc(-c2ccc(F)c(C(=O)NCCCCCCCCCCCCNC(=O)c3cc(-c4cncc([C@@H]5CCCN5C(=O)[C@@H](NC(=O)[C@H](C)NC)C5CCCCC5)c4)ccc3F)c2)c1)C1CCCCC1 [Example 2E-1]	0.07 to 4.93 nM	> 1000 nM	5.65 to 6.37 nM	–
CN[C@@H](C)C(=O)N[C@H](C(=O)N1CCC[C@H]1c1cncc(-c2ccc(F)c(C(=O)NCc3ccc(CNC(=O)c4cc(-c5cncc([C@@H]6CCCN6C(=O)[C@@H](NC(=O)[C@H](C)NC)C6CCCCC6)c5)ccc4F)cc3)c2)c1)C1CCCCC1 [Example 2B-1, (S,S,S)—N,N′-(1,4-phenylenebis(methylene))bis(5-(5-((S)-1-((S)-2-cyclohexyl-2-((S)-2-(methylamino)propanamido)acetyl)pyrrolidin-2-yl)pyridin-3-yl)-2-fluorobenzamide)]	< 0.0026 nM	347 to 353 nM	0.77 to 0.79 nM	–
CN[C@@H](C)C(=O)N[C@H](C(=O)N1CCC[C@H]1c1cncc(-c2ccc(F)c(C(=O)NCCCOCCOCCOCCCNC(=O)c3cc(-c4cncc([C@@H]5CCCN5C(=O)[C@@H](NC(=O)[C@H](C)NC)C5CCCCC5)c4)ccc3F)c2)c1)C1CCCCC1 [Example 2J-2]	0.03 to 0.59 nM	156 nM	1.39 to 1.4 nM	–
CN[C@@H](C)C(=O)N[C@H](C(=O)N1CCC[C@H]1c1cncc(-c2ccc(F)c(C(=O)NCCCOCCOCCOCCOCCOCCCNC(=O)c3cc(-c4cncc([C@@H]5CCCN5C(=O)[C@@H](NC(=O)[C@H](C)NC)C5CCCCC5)c4)ccc3F)c2)c1)C1CCCCC1 [Example 1A-1]	0.15 to 2.87 nM	353 to 359 nM	–	1.55 to 1.6 nM
CN[C@@H](C)C(=O)N[C@H](C(=O)N1CCC[C@H]1c1cncc(-c2ccc(F)c(C(=O)N[C@H]3CC[C@H](NC(=O)c4cc(-c5cncc([C@@H]6CCCN6C(=O)[C@@H](NC(=O)[C@H](C)NC)C6CCCCC6)c5)ccc4F)CC3)c2)c1)C1CCCCC1 [Example 2K-1]	< 0.0026 nM	321 to 322 nM	1.65 to 1.66 nM	–
CN[C@@H](C)C(=O)N[C@H](C(=O)N1CCC[C@H]1c1cncc(-c2ccc(F)c(C(=O)NCCOCCOCCNC(=O)c3cc(-c4cncc([C@@H]5CCCN5C(=O)[C@@H](NC(=O)[C@H](C)NC)C5CCCCC5)c4)ccc3F)c2)c1)C1CCCCC1 [Example 2H-1]	0.03 to 0.07 nM	244 to 252 nM	1.84 to 1.89 nM	–

Results, then the molecule that gave them:

IC50 (Panc3.27 tumor cells)	EC50 (XIAP-BIR3)	EC50 (cIAP1-BIR3; [1])	EC50 (cIAP1-BIR3; Tested as the citrate salt (footnote 1), SPR competition with smac7mer peptide)	SMILES
0.01 to 0.56 nM	480 to 488 nM	3.35 to 3.38 nM	–	CN[C@@H](C)C(=O)N[C@H](C(=O)N1CCC[C@H]1c1cncc(-c2ccc(F)c(C(=O)NCCCOCCOCCCNC(=O)c3cc(-c4cncc([C@@H]5CCCN5C(=O)[C@@H](NC(=O)[C@H](C)NC)C5CCCCC5)c4)ccc3F)c2)c1)C1CCCCC1 [Example 2L-2]
0.0026 to 0.0084 nM	126 to 127 nM	0.86 to 0.88 nM	–	CN[C@@H](C)C(=O)N[C@H](C(=O)N1CCC[C@H]1c1cncc(-c2ccc(F)cc2CNC(=O)c2ccc(-c3ccc(C(=O)NCc4cc(F)ccc4-c4cncc([C@@H]5CCCN5C(=O)[C@@H](NC(=O)[C@H](C)NC)C5CCCCC5)c4)cc3)cc2)c1)C1CCCCC1 [Example 3A, N4,N4′-bis(2-(5-((S)-1-(S)-2-cyclohexyl-2-((S)-2-(methylamino)-propanamido)acetyl)pyrrolidin-2-yl)pyridin-3-yl)-5-fluorobenzyl)biphenyl-4,4′-dicarboxamide, trifluoroacetate]
0.0026 to 0.02 nM	75.2 to 75.5 nM	1.27 to 1.36 nM	–	CN[C@@H](C)C(=O)N[C@H](C(=O)N1CCC[C@H]1c1cncc(-c2ccc(F)c(C(=O)NNC(=O)c3cc(-c4cncc([C@@H]5CCCN5C(=O)[C@@H](NC(=O)[C@H](C)NC)C5CCCCC5)c4)ccc3F)c2)c1)C1CCCCC1 [Example 2N-2]
